Results as given in patent publication US7727980B2, “Tricyclic androgen receptor modulator compounds and methods” (priority 2001, dated 2010).
Like-named read-outs stand apart in the source and are kept apart here.

What was measured:
human AR [1] = molecular target: T1, human AR (Homo sapiens, UniProt P10275); assay: AR whole cell competitive binding assay (3H-DHT), transfected COS-1 cells; design: expressed in transfected cells; transient transfection with pRShAR; conditions: COS-1 cells, 1 nM 3H-DHT, Cheng-Prusoff from IC50
T1 sequence (P10275 1-920): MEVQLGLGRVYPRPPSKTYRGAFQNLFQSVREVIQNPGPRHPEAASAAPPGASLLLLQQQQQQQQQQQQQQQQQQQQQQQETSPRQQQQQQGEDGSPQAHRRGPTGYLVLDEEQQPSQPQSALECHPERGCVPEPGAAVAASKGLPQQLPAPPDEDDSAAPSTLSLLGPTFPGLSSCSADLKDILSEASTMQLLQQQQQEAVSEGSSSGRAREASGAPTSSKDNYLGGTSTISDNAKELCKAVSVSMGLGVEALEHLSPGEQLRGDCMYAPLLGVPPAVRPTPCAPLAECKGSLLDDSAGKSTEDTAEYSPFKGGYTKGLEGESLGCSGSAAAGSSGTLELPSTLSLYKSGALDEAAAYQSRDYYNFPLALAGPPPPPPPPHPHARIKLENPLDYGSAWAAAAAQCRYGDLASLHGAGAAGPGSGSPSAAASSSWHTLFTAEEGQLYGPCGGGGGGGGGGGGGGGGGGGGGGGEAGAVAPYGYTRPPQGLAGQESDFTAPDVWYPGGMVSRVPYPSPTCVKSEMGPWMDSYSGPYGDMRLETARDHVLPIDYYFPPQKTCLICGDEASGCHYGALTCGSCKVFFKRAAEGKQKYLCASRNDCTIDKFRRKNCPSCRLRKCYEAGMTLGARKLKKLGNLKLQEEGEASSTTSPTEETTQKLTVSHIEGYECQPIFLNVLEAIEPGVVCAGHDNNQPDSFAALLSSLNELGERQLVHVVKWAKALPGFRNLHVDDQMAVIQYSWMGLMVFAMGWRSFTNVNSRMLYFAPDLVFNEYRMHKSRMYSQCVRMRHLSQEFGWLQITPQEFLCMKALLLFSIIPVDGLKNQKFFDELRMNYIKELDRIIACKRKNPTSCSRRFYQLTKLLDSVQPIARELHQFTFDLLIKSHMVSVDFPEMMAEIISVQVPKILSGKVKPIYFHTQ

human AR [2] = molecular target: T1, human AR; assay: Co-transfection assay, AR agonist activity, CV-1 cells; assay type: cell-based; design: expressed in transfected cells; host or cells: CV-1 cells (African green monkey kidney fibroblasts), transient transfection with pRShAR; conditions: for AR Agonist CV-1 Cells Efficacy (%): percent maximal response relative to reference agonist DHT
human AR [3] = molecular target: T1, human AR; assay: Co-transfection assay, AR antagonist activity in presence of DHT, CV-1 cells; assay type: cell-based; design: expressed in transfected cells; host or cells: CV-1 cells (African green monkey kidney fibroblasts), transient transfection with pRShAR; conditions: for AR Antagonist CV-1 Cells Efficacy (%): percent maximal inhibition, DHT at its EC50 concentration
[4] = AR Antagonist CV-1 Cells Potency (nM), CV-1 cells, antagonist potency or IC50, DHT at its EC50 concentration
[5] = AR Agonist CV-1 Cells Potency (nM), agonist potency or EC50
[6] = agonist potency or EC50, read-out: AR Agonist CV-1 Cells Potency
[7] = CV-1 cells, antagonist potency or IC50, DHT at its EC50 concentration, read-out: AR Antagonist CV-1 Cells Potency

Molecule | Ki (human AR [1]; AR Binding Ki (nM)) [nM] | AR Agonist CV-1 Cells Efficacy (%) (human AR [2]) | IC50 (human AR [3]; [4]) [nM] | AR Antagonist CV-1 Cells Efficacy (%) (human AR [3]; CV-1 cells) | EC50 (human AR [2]; [5]) [nM] | Ki (human AR [1]; read-out: AR Binding Ki) [nM] | EC50 (human AR [2]; [6]) [nM] | IC50 (human AR [3]; [7]) [nM] | IC50 (human AR [3]) [nM]
O=c1cc(C(F)(F)F)c2cc3c(cc2[nH]1)CCCN3CC1CC1 [Compound 201, 4-Trifluoromethyl-6-cyclopropylmethyl-6,7,8,9-tetrahydropyrido[2,3-g]quinolin-2(1H)-one] | 10 | 76% | > 10000 | na (na = not active (i.e. efficacy of <20 and potency of >10,000)) | – | – | – | – | –
Cc1[nH]c2c(ccc3[nH]c(=O)cc(C(F)(F)F)c32)c1CCO [Compound 177, 7-(2-Hydroxyethyl)-6-methyl-4-trifluoromethyl-5H-pyrrolo[2,3-f]quinolin-2(1H)-one] | 31 | na (na = not active (i.e. efficacy of <20 and potency of >10,000)) | 790 | 98% | > 10000 | – | – | – | –
C=CCc1c(C)[nH]c2c1ccc1[nH]c(=O)cc(C(F)(F)F)c12 [Compound 173, 7-Allyl-6-methyl-4-trifluoromethyl-5H-pyrrolo[2,3-f]quinolin-2(1H)-one] | 80 | 41% | 1 | 56% | 138 | – | – | – | –
CC1CCc2cc3[nH]c(=O)cc(C(F)(F)F)c3cc2N1CC1CC1 (stereo not drawn) [Compound 195, 4-Trifluoromethyl-7-methyl-6-cyclopropylmethyl-6,7,8,9-tetrahydropyrido[2,3-g]quinolin-2(1H)-one] | 20 | 78% | > 10000 | na (na = not active (i.e. efficacy of <20 and potency of >10,000)) | – | – | – | – | –
CCCN1c2ccc3[nH]c(=O)cc(C(F)(F)F)c3c2CCC1(C)C [Compound 109, 5,6,7,8-Tetrahydro-7,7-dimethyl-4-trifluoromethyl-8-propylpyridino[3,2-f]quinolin-2(1H)-one] | 1.2 | 97% | > 10000 | na (na = not active (i.e. efficacy of <20 and potency of >10,000)) | 13 | – | – | – | –
5-(2-Ethoxycarbonylethyl)-6-methyl-7-(2,2,2-trifluoroethyl)-4-trifluoromethyl-7H-pyrrolo[3,2-f]quinolin-2(1H)-one [Compound 162] | – | 71% | – | na (na = not active (i.e. efficacy of <20 and potency of >10,000)) | – | 113 | 20 | > 10000 | –
5-(4-Fluorophenyl)-6-methyl-7-(2,2,2-trifluoroethyl)-4-trifluoromethyl-7H-pyrrolo[3,2-f]quinolin-2(1H)-one [Compound 161] | – | 27% | – | 66% | – | 30 | 238 | 10 | –
CCC1=CC(C)(C)Oc2cc3oc(=O)cc(C(F)(F)F)c3cc21 [Compound 227, 6-Ethyl-8,8-dimethyl-4-trifluoromethyl-8H-pyrano[3,2-g]coumarin] | 33 | na (na = not active (i.e. efficacy of <20 and potency of >10,000)) | 25 | 75% | > 10000 | – | – | – | –
O=c1cc(C(F)(F)F)c2cc3c(cc2[nH]1)C1CCCC1N3CC(F)(F)F (racemic) [Compound 120, (±)-6,6a,7,8,9,9a(cis)-Hexahydro-6-(2,2,2-trifluoroethyl)-4-trifluoromethylcyclopentano-[i]pyrrolo[2,3-g]quinolin-2(1H)-one] | 12 | 117% | > 10000 | na (na = not active (i.e. efficacy of <20 and potency of >10,000)) | 4.5 | – | – | – | –
CCC1CCOc2cc3c(cc21)c(C(F)(F)F)c(F)c(=O)n3C (racemic) [Compound 221, (±)-6,7-Dihydro-6-ethyl-3-fluoro-4-trifluoromethyl-1-methyl-8H-pyrano[3,2-g]quinolin-2(1H)-one] | 29 | na (na = not active (i.e. efficacy of <20 and potency of >10,000)) | 311 | 78% | > 10000 | – | – | – | –
CCC1C(C)c2c(ccc3[nH]c(=O)cc(C(F)(F)F)c23)N1CC(F)(F)F (racemic) [Compound 134, (±)-5,6-cis-Dihydro-6-ethyl-5-methyl-7-(2,2,2-trifluoroethyl)-4-trifluoromethyl-7H-pyrrolo[3,2-f]quinolin-2(1H)-one] | 6.8 | 70% | > 10000 | na (na = not active (i.e. efficacy of <20 and potency of >10,000)) | 4.2 | – | – | – | –
CCC1CCOc2c1ccc1[nH]c(=O)cc(C)c21 (racemic) [Compound 215, (±)-7,8-Dihydro-8-ethyl-4-methyl-6H-pyrano[2,3-f]quinolin-2(1H)-one] | 47 | 28% | – | 77% | 2070 | – | – | – | 17
CC1=CC(C)(C)Oc2cc3oc(=O)cc(C(F)(F)F)c3cc21 [Compound 223, 6,8,8-Trimethyl-4-trifluoromethyl-8H-pyrano[3,2-g]coumarin] | 37 | na (na = not active (i.e. efficacy of <20 and potency of >10,000)) | 41 | 66% | > 10000 | – | – | – | –
6-Methyl-7-(2,2,2-trifluoroethyl)-4-trifluoromethyl-7H-pyrrolo[3,2-f]quinolin-2(1H)-one [Compound 152] | – | 74% | – | na (na = not active (i.e. efficacy of <20 and potency of >10,000)) | – | 67 | 4.9 | > 10000 | –
CC1(C)CCc2c(ccc3[nH]c(=O)cc(C(F)(F)F)c23)N1 [Compound 104, 5,6,7,8-Tetrahydro-7,7-dimethyl-4-trifluoromethylpyridino[3,2-f]quinolin-2(1H)-one] | 15 | 78% | 1.8 | 50% | 183 | – | – | – | –
CCCC1C(CC)c2c(ccc3[nH]c(=O)cc(C(F)(F)F)c23)N1CC(F)(F)F (racemic) [Compound 146, (±)-5,6-Dihydro-5-ethyl-6-propyl-7-(2,2,2-trifluoroethyl)-4-trifluoromethyl-7H-pyrrolo[3,2-f]quinolin-2(1H)-one] | 75 | 38% | 1 | 66% | 49 | – | – | – | –
O=c1cc(C(F)(F)F)c2c3c(ccc2[nH]1)N(CC(F)(F)F)CC3c1ccccc1 (racemic) [Compound 141, (±)-5,6-Dihydro-5-phenyl-7-(2,2,2-trifluoroethyl)-4-trifluoromethyl-7H-pyrrolo[3,2-f]quinolin-2(1H)-one] | 97 | 46% | 34 | 44% | 86 | – | – | – | –
O=c1cc(C(F)(F)F)c2c3c(ccc2[nH]1)N(Cc1ccoc1)C1CCCC31 (racemic) [Compound 126, (±)-4c,5,6,7,7a(cis),8-Hexahydro-8-(3-furanylmethyl)-4-trifluoromethyl-cyclopentano[g]pyrrolo[3,2-f]quinolin-2(1H)-one] | 2.3 | 53% | > 10000 | na (na = not active (i.e. efficacy of <20 and potency of >10,000)) | – | – | – | – | –
